Results reported in US4556674A, “2-Imino-pyrrolidines, process for their preparation, and therapeutic compositions containing same” (Laboratoires Jacques Logeais, priority 1983, dated 1985).

Tests used:
[1] = test system: collagen-induced blood-platelet aggregation (platelet rich plasma); test: Collagen-induced blood-platelet aggregation; assay type: cell-based, rabbit; conditions: for minimal effective concentration: Oryctolagus cuniculus, Platelet, read-out: Collagen-induced blood-platelet aggregation: Threshold concentrations (inhibition of aggregation <50%)
Description: Collagen-induced blood-platelet aggregation
Blood samples were taken from the carotid artery in rabbits, using an anticoagulant (sodium citrate at 3.8%, 1 volume per 9 volumes of blood). The platelet rich plasma (PRP) was obtained by slow centrifugation (1200 RPM for 10 mn), and the platelet poor plasma (PPP) by rapid centrifugation (4500 RPM for 15 mn). The PRP samples were placed in the cell of an aggregometer, incubated at 37° C., after which was added thereto Michaelis buffer containing the test compound (0.04 ml), followed by the aggregating agent (collagen: 0.08 ml of collagen suspension previously incubated at 33° C. for 90 seconds). Blood-platelet aggregation is evidenced by the decrease of the optical density of the PRP (Initial O.D. of the PRP: 100%. Initial O.D. of the PPP=0%.)

[2] = test system: aconitine-induced dysrhythmia; test: Anti-dysrhythmic activity, aconitine test in rats; assay type: in vivo, rat
Description: The animals are anesthetized with urethane (1 g/kg i.p.); an aconitine sulfate injection (27.5 μg/kg) is made in the pre-catheterized jugular vein, 30 minutes after administration by the same route of one of the test compounds. The time delay before the appearance of the first burst of dysrhythmia is noted on the electrocardiogram (D2 lead recording) and compared with reference animals.

[3] = Acute Toxicity in Mice; assay type: in vivo; conditions: mouse, in vivo, death rate recorded 9 days after treatment
Description: (§1) The compounds were administered orally or intraperitoneally, in the form of a solution in physiological saline (0,9 % NaCl), to male mice of Swiss strain (body weight: 22-25 g). The death rate was recorded 9 days after the treatment. […]

[4] = test system: human plasma clots; test: Fibrinolytic activity (lysis of human plasma clots); set-up: Concentration inducing lysis of the clot within 24 hours / Concentration inducing lysis of the clot within 48 hours: unit not given here; conditions: for Concentration inducing lysis of the clot within 48 hours / Concentration inducing lysis of the clot within 24 hours: human plasma clot, veronal buffer pH 7.2-7.4, 37° C.
Description: The following method was used.
Human plasma clots were prepared by recalcification (one drop of calcium thrombase at 20 U/ml per 0.5 ml of plasma), so that the clot formed around the hook of a glass rod. The clots were then suspended in buffered solutions (veronal buffer pH 7.2-7.4) maintained at 37° C. The eventual lysis of the clot is recorded after 24 hrs and 48 hrs incubation.

[5] = test system: α-adrenolytic activity; test: α-adrenolytic activity observed in dog after an injection of nor-adrenalin; assay type: in vivo; conditions: result in words
[6] = test system: male mice of Swiss strain; test: Acute Toxicity in Mice; assay type: in vivo; conditions: result in words
Description: as §1

[7] = test system: cardiac rhythm; conditions: described in DE-A-1770 752; cited from earlier work
[8] = rabbit PRP, 37° C., collagen, threshold concentrations
[9] = Rattus norvegicus, iv, read-out: Aconitine-induced dysrhythmia, percent animals protected

Row | SMILES | minimal effective concentration [1, 8] [µg/mL] | mortality at 216 h ([3]; ip, 100 mg/kg i.p.) [%] | mortality at 216 h ([3]; po, 200 mg/kg p.o.) [%] | Concentration inducing lysis of the clot within 48 hours [4] | other results
1 | CC(Cc1ccccc1)N=C1CC(c2cc3ccccc3o2)CN1C (stereo not drawn) [Example 14, 1-Methyl-4-(2-benzofuryl)-2-phenylisopropyl-imino-pyrrolidine] | 3 to 10 | 80 | 0 |  | responders at 5 mg/kg [2, 9]: 100%
2 | C#CCN=C1CC(c2cc3ccccc3o2)CN1C (stereo not drawn) [Example 10, 1-Methyl-4-(2-benzofuryl)-2-propargylimino-pyrrolidine] | 100 |  |  |  | 
3 | CN1CC(c2cc3ccccc3o2)CC1=NCCOc1ccccc1 (stereo not drawn) [Example 15, 1-Methyl-4-(2-benzofuryl)-2-(2-phenoxy-ethylimino)-pyrrolidine] |  | 100 | 10 |  | responders at 5 mg/kg [2, 9]: 80%
4 | CCN1CC(c2ccccc2)CC1=NCCc1ccc(OC)c(OC)c1 (stereo not drawn) [Example 5, 1-Ethyl-4-phenyl-2-(3',4'-dimethoxy-phenethylimino)pyrrolidine] | 3 to 10 | 20 | 0 |  | 
5 | C=CCN=C1CC(c2cc3ccccc3o2)CN1C (stereo not drawn) [Example 9, 1-Methyl-4-(2-benzofuryl)-2-allylimino-pyrrolidine] | 3 to 10 | 60 |  |  | mortality at 216 h ([3]; po, 100 mg/kg p.o.): 0%
6 | CN1CC(COc2ccccc2)CC1=NCCOc1ccccc1 (stereo not drawn) [Example 17, 1-Methyl-4-phenoxymethyl-2-(2-phenoxy-ethylimino)-pyrrolidine] | 3 |  |  |  | responders at 10 mg/kg [2, 9]: 100%
7 | COCCN=C1CC(c2cc3ccccc3o2)CN1C (stereo not drawn) [Example 12, 1-Methyl-4-(2-benzofuryl)-2-(2-methoxy-ethylimino)-pyrrolidine] | 3 to 30 | 100 | 0 |  | 
8 | CCCN=C1CC(c2cc3ccccc3o2)CN1C (stereo not drawn) [Example 8, 1-Methyl-4-(2-benzofuryl)-2-n.propyl-imino-pyrrolidine] | 10 to 30 |  |  | 20 | 
9 | COc1ccc(CCN=C2CC(COc3ccccc3)CN2C)cc1OC (stereo not drawn) [Example 18, 1-Methyl-4-phenoxymethyl-2-(3',4'-dimethoxy-phenethylimino)pyrrolidine] | 10 to 30 | 40 | 0 | 20 | responders at 5 mg/kg [2, 9]: 100%
10 | CN1CC(c2ccccc2)CC1=NCCOc1ccccc1 (stereo not drawn) [Example 3, 1-Methyl-4-phenyl-2-(2-phenoxy-ethylimino)pyrrolidine] | 1 to 3 |  | 0 |  | Concentration inducing lysis of the clot within 24 hours [4]: 10-20; fibrinolytic activity ([4]; result in words): a fibrinolytic activity; anti-blood-platelet-aggregation activity ([1]; result in words): possesses an anti-blood-platelet aggregating activity; responders at 10 mg/kg [2, 9]: 83%; anti-arrhythmic activity ([2]; result in words): an anti-arrhythmic activity; α-adrenolytic activity [5]: an α-adrenolytic activity; mortality at 216 h ([3]; ip, 200 mg/kg i.p.): 0%; toxicity [6]: least toxic in mice
11 | CN1CC(c2cc3ccccc3o2)CC1=NCCO (stereo not drawn) [Example 11] | 10 to 100 |  | 0 |  | mortality at 216 h ([3]; ip, 200 mg/kg i.p.): 80%
12 | CN1CC(c2ccccc2)CC1=NCCc1ccccc1 (stereo not drawn) [Example 1, 1-Methyl-4-phenyl-2-phenylethylimino-pyrrolidine] |  | 80 | 0 |  | responders at 1 mg/kg [2, 9]: 25%
13 | CCCN1CC(c2ccccc2)CC1=NCCOc1ccccc1 (stereo not drawn) [Example 6, 1-n.Propyl-4-phenyl-2-(phenoxyethyl-imino)pyrrolidine] | 1 to 3 |  |  | 5-10 | 
14 | COc1ccc(CCN=C2CC(COc3ccc4c(c3)OCO4)CN2C)cc1OC (stereo not drawn) [Example 20, 1-Methyl-4-(3',4'-methylenedioxy-phenoxymethyl)-4-(3',4'-dimethoxy-phenethylimino)pyrrolidine] | 10 to 30 | 80 | 0 |  | responders at 10 mg/kg [2, 9]: 100%
15 | CC(Cc1ccccc1)N=C1CC(c2ccccc2)CN1C (stereo not drawn) [Example 2, 1-Methyl-4-phenyl-2-phenylisopropylimino-pyrrolidine] | 10 | 100 | 83 |  | responders at 1 mg/kg [2, 9]: 67%
16 | CN1CC(COc2ccccc2C#N)CC1=NCCOc1ccccc1 (stereo not drawn) [Example 22, 1-Methyl-4-(2'-cyano-phenoxymethyl)-2-(2-phenoxyethylimino)-pyrrolidine] | 30 |  | 0 | 5-10 | Concentration inducing lysis of the clot within 24 hours [4]: 20; mortality at 216 h ([3]; ip, 33 mg/kg i.p.): 40%
17 | C=CCN1CC(c2ccccc2)CC1=NCCc1ccc(OC)c(OC)c1 (stereo not drawn) [Example 7, 1-Allyl-4-phenyl-2-(3',4'-dimethoxy-phenethyl-imino)pyrrolidine] | 10 |  |  | 10-20 | 
18 | COc1ccc(CCN=C2CC(c3ccccc3)CN2C)cc1OC (stereo not drawn) [Example 4, 1-Methyl-4-phenyl-2-(3',4'-dimethoxy-phenethylimino)pyrrolidine] | 10 to 30 |  | 0 |  | responders at 7.5 mg/kg [2, 9]: 90%; mortality at 216 h ([3]; ip, 200 mg/kg i.p.): 100%
19 | CCc1ccccc1OCC1CC(=NCCc2ccc(OC)c(OC)c2)N(C)C1 (stereo not drawn) [Example 21, 1-Methyl-4-(2'-ethyl-phenoxymethyl)-2-(3',4'-dimethoxy-phenethylimino)pyrrolidine] | 3 |  | 0 | 10-20 | responders at 7.5 mg/kg [2, 9]: 100%; mortality at 216 h ([3]; ip, 33 mg/kg i.p.): 20%
20 | COc1ccc(CCN=C2CC(c3cc4ccccc4o3)CN2C)cc1OC (stereo not drawn) [Example 16] | 10 to 30 | 100 | 0 |  | responders at 3 mg/kg [2, 9]: 80%
21 | CN1CC(c2cc3ccccc3o2)CC1=NCCc1ccccc1 (stereo not drawn) [Example 13, 1-Methyl-4-(2-benzofuryl)-2-phenethylimino-pyrrolidine] | 3 to 30 | 100 | 0 | 2.5-5 | Concentration inducing lysis of the clot within 24 hours [4]: 10; responders at 5 mg/kg [2, 9]: 50%
22 | COc1ccc(CCN=C2CCCN2C)cc1OC [Compound A, 1-methyl-2-[(3,4-dimethoxy-phenylethyl)imino]pyrrolidine, reference compound] |  |  | 0 |  | Collagen-induced blood-platelet aggregation: Threshold concentrations (inhibition of aggregation <50%) [1, 8]: inactive; responders at 5 mg/kg [2, 9]: 0%; action on the cardiac rhythm [7]: decreasing action on the cardiac rhythm; mortality at 216 h ([3]; ip, 200 mg/kg i.p.): 60%
23 | CN1CC(COc2ccc3c(c2)OCO3)CC1=NCCOc1ccccc1 (stereo not drawn) [Example 19, 1-Methyl-4-(3',4'-methylenedioxy-phenoxymethyl)-2-(2-phenoxy-ethylimino)-pyrrolidine] | 3 to 10 | 80 | 0 |  | responders at 2.5 mg/kg [2, 9]: 25%
